The source of these data is patent US9394544B2, “Ameliorating oxidative stress in neurodegenerative disease via Nox1 targeting” (University of Central Florida Research Foundation, Inc., priority 2013, dated 2016).

One data set concerns Nox1. Briefly: Nox1 immunostaining in rat SN after striatal 6-OHDA. Type of data set: in vivo. The method, then: The experiments were carried out on rats, in accordance with the NIH Guide for the Care and Use of Laboratory Animals. All procedures were approved by the local Animal Care and Use Committee. Female Sprague Dawley (SD) rats (Charles River; 8-weeks-old at the time of the beginning of AAV expression or 6-OHDA treatment, 2 or 3 per cage) were maintained in a temperature/humidity-controlled environment under a 12 h light/dark cycle with free access to food and water. All rats were respectively allocated into […], Nox1 shRNA/AAV, T17N Rac1/AAV, and scramble (scb) shRNA/AAV or empty vector/AAV as control groups. […]
Free-floating sections (40 μm) were washed in 0.1 M PBS, incubated in 0.1 M PBS containing 5% normal donkey serum and 0.3% TritonX-100 for 1 h, and subsequently incubated overnight with primary antibodies (TH, 1:2,000; Nox1, 1:200; GFAP, 1:500; CD11b, 1:200) in 2% normal donkey serum in PBS at 4° C. and incubated in a 1:200 dilution of AlexaFluor conjugated donkey anti-rabbit (546) or donkey anti-mouse (488) antibodies for 1 h at room temperature, washed with PBS, incubated in TOTO-3 (1:1,000) in 0.1 M PBS for 5 min, and then mounted sequentially in glass slides using Vectashield. Mounted slices were evaluated for fluorescence under settings for 546, 488, and 660 nm emissions on a confocal microscope (Leica TCS SP5).

Another data set deals with N27 cells. Briefly: 8-oxo-dG immunostaining (oxidative DNA damage) in N27 cells. Type of data set: cell-based, rat. From the text:
To substantiate that nuclear Nox1/Rac1 complex produces superoxide, it was investigated whether selective inhibition of the Nox1/Rac1 complex attenuates ROS production. Adeno-associated virus serotype 2 (AAV2) expression cassettes with either Nox1 shRNA or a T17N dominant negative Rac1 variant were used to knockdown Nox1 or inhibit Rac1, respectively. These vectors separately expressed Green Fluorescent Protein (GFP) as a marker for transduction efficiency. […] The increased levels of active Nox1/Rac1 complex (FIG. 4B) in the nucleus, and increased ROS (FIGS. 5A and 5B) of DA cells in the presence of 6-OHDA, led one to investigate whether oxidative DNA damage occurs in the nucleus. […] As early as 3 days after striatal injection of 6-OHDA, 8-oxo-dG staining was increased in the SN (FIG. 5E). […]
For fluorescent immunostaining, N27 cells in the 4-well chamber slide were incubated for 1 h at 37° C. in 2% normal donkey serum containing either a rabbit polyclonal antibody against Nox1 (1:500), or p-c-jun (1:500). […] Specific binding was detected by incubation for 60 min at room temperature with a 1:200 dilution of secondary antibodies conjugated to AlexaFluor 546 dyes. […] Mounted slices were evaluated for fluorescence under settings for 546 and 488 nm emissions on a confocal microscope.

As to `NCCc1cc(O)c(O)cc1O` [6-OHDA, 6-hydroxydopamine], in the data set on Nox1 (3 days after striatal injection), the “Nox1 expression in the substantia nigra vs vehicle” value is reported as “significant increase”. For the same compound, in the data set with Nox1 (rat SN after 6-OHDA administration), the “TH-positive neurons showing Nox1 nuclear staining” value is on record as “About 75%”. Also, in the data set with N27 cells, the “DNA oxidative damage (8-oxo-dG immunoreactivity in the nucleus) caused by toxin” value was “increased DNA oxidative damage”.
